From US11739053B2, “P62-ZZ chemical inhibitor” (ID4PHARMA, LLC, priority 2011, dated 2023)
pIC50: −log10 of the molar value.

Assays:
MM1.S myeloma cell line = test: MM1.S myeloma cell proliferation, MTT assay; assay type: cell-based, human; details: 48 h
Procedure: (§1) FIG. 4A-C: 4A. Effect of p62-ZZ inhibitor #3 on myeloma cell growth. MM cell growth was assayed by MTT assay. Data are shown as mean±SD (n=5). FIG. 4B. MTT assay of CD138(+) primary myeloma cells. Data are shown as mean±SD (n=5). FIG. 4C. Effects of p62-ZZ inhibitors on human stromal cell growth. Primary human stromal cells (5×10^3/well) were cultured with 10 μM of p62-ZZ inhibitor (#1-6) containing 10% FCS in IMDM for 48 hours. Stromal cells growth was assayed by MTT assay. Data are shown as the mean±SD (n=5). *P<0.01 compared to vehicle treated culture. MM1.S (3×10^5 cells/well) or CD138 (+) (1×10^5 cells/well) primary myeloma cells were incubated in 96-well plates in the presence of RPMI-1640-10% FCS and various concentrations of p62-ZZ inhibitor #3 at 37° C. 5% CO2 for 48 h to determine the IC50 for inhibiting myeloma cell proliferation.

MM1.S cells = test: TUNEL apoptosis detection in MM1.S cells; assay type: cell-based, human; details: 10 μM, after 24 hours
Procedure: FIG. 9A-C: 9A. […] MM1.S cells were cultured with 10 μM of p62-ZZ antagonist for the indicated time, and then cell lysates were collected. Caspase 9, 7 and 3 were detected by Western blotting using anti-caspase 9, 7 and 3 specific antibodies (Cell Signaling). FIG. 9B. Detection of Apoptosis using the TUNEL reaction with MM1.S cells treated with p62-ZZ antagonist. MM1.S cells were treated with 10/μM of p62-ZZ antagonist #3 for 24 hours and then the cells were collected and mounted on glass slides using the cytospin procedure. Terminal deoxynucleotidyl transferase nick end labeling (TUNEL) reactions were conducted using an In Situ Cell Death Detection Kit (Roche) according to the manufacturer's instructions. The stained cells were analyzed using a fluorescence microscope equipped with standard green filter. FIG. 9C. The p62-ZZ antagonist induced Reactive Oxygen Species in MM1.S cells. MM1.S cells were treated with 10 μM of p62-ZZ antagonist #3 for 6 hours. Cells were collected and stained for Reactive Oxygen Species (ROS) using a Total ROS detection kit (Enzo) according to the manufacturer's instructions. The expression of apoptosis markers in p62-ZZ antagonist treated on 25 MM cells was determined to determine the mechanism action of this antagonist.

human OCL formation = test: Human osteoclast (OCL) formation; assay type: cell-based; details: various concentrations, 2 weeks, 1 ng/ml TNFα
Procedure: (§2) FIG. 7A-C: 7A. CFU-Blast colony formation. Human CD34(+) cells were cultured with p62-ZZ inhibitor #3 and 1 ng/ml of rhIL-3 IL-6 and SCF for 7 days. Data are shown as the mean±SD (n=5). FIG. 7B. Human OCL formation. Non-adherent mononuclear cells (2.5×10^7 cells/10-cm dish) derived from human bone marrow samples were cultured in α-MEM containing 10% FCS, 100 pg/ml recombinant human GM-CSF(R & D) for 7 days. Then the cells were collected and plated (cell density is 1.0×10^6 cells/nil) in α-MEM containing 20% horse serum with 1 ng/ml TNFα. Half-media changes were performed twice a week containing various concentrations of the p62-ZZ inhibitor #3. The cultures were incubated for a total of 2 weeks at 37° C. with 5% CO2 and 95% humidity. The osteoclasts were stained with the 23C6 antibody which recognizes CD51/61. Data are shown as the mean±SD (n=5). *P<0.01 compared to vehicle treated cultures. 7C. OCL formation by wild type and p62−/− mouse osteoclast precursors. Data is shown as the mean±SD (n=4). *: P<0.01 compared to no-inhibitor cultures. Whether p62-ZZ inhibitor #3 affects hematopoesis since osteoclast precursors are derived from hematopoietic cells was examined. […] Colonies were scored after 7 days of culture using an inverted microscope.

[1] = system: CD138(+) primary myeloma cells; test: CD138(+) primary myeloma cell proliferation, MTT assay; assay type: cell-based, human; details: 48 h, FIG. 4B
Procedure: as §1

IL-6 production = test: TNF-α induced IL-6 production by marrow stromal cells, ELISA; assay type: cell-based, human
Procedure: FIG. 5A-B: 5A. VCAM-1 expression using Western blot analysis. Normal human stromal cells were cultured with/without TNF and p62-ZZ inhibitors (#1-6) for 48 hours. The cell lysates were collected and VCAM-1 expression was measured using an anti-VCAM-1 antibody (Santa Cruz). FIG. 5B. IL-6 production by human and mouse marrow stromal cells by ELISA. Normal human and mouse marrow stromal cells were cultured with/without TNFα and p62-ZZ inhibitors (#1-6) for 48 hours. The cell culture media were collected and IL-6 production measured using an IL-6 ELISA kit (R &D). Data are shown as the means (n=2).
Normal human or mouse marrow stromal cells were maintained in 10% FBS-IMDM and treated with p62-ZZ inhibitors (#1-6) for 3 hours. Then TNFα or vehicle was added for 48 hours. Cell lysates were collected and VCAM-1 expression measured by Western blot using an anti-VCAM-1 antibody (Santa Cruz). The culture media were collected and IL-6 production was measured using an IL-6 ELISA kit (R&D Company).

phospho-PKCζ = test: TNF-α induced PKCζ phosphorylation in marrow stromal cells, Western blot; assay type: cell-based, human or mouse; details: pre-treated 3 hours, 10 ng/ml TNF-α 5 min
Procedure: FIG. 6. The effect of p62-ZZ Inhibitors on phospho-PKCζ activation by TNFα stimulated MM patient and mouse marrow stromal cells. For assay of phospho-PKCz, cells were stimulated with 10 ng/ml of TNFα for 5 min and cell lysates were collected. The phospho PKCζ was assayed by Western blot using anti-phospho PKCz anti-body (Cell Signaling). Phospho-PKCζ is an unique downstream signal activated by interactions with the p62-ZZ domain. Therefore, we examined whether p62-ZZ inhibitor #3 blocked its phosphorylation. Marrow stromal cells derived from patients with multiple myeloma or mouse stromal cells were cultured in 10% FBS IMDM and then pre-treated with various p62-ZZ inhibitors for 3 hours. For assay of phospho-PKCζ, cells were stimulated with 10 ng/ml of TNF-a for 5 min and the cell lysates were collected. Phospho PKCζ was assayed by Western blot using an anti-phospho PKCζ anti-body (Cell Signaling). TNF-α induced PKCζ phosphorylation in stromal cells was blocked when the cells were pre-treated with p62-ZZ inhibitor #3 for 3 hours.

[2] = system: Human CD34(+) mononuclear cells; test: CFU-Blast colony formation; assay type: cell-based; details: all concentrations, 7 days
Procedure: as §2

OCCNCc1ccc(OCc2ccccc2)c(OCc2ccccc2)c1 [Compound 3, 2-[[3,4-bis(phenylmethoxy)phenyl]methylamino]ethanol]
growth of MM1.S myeloma cell line (result in words) (MM1.S myeloma cell line; FIG. 4A): directly inhibited | pIC50 (MM1.S myeloma cell line; Homo sapiens, MM1.S): 5.21 | TUNEL staining of cells (MM1.S cells): positive TUNEL staining | human OCL formation (human OCL formation): blocked human OCL formation dose dependently | growth of CD138(+) primary myeloma cells (result in words) [1]: directly inhibited | IL-6 production induced by TNF-α blocked compared to vehicle (IL-6 production; marrow stromal cells, 3 h pre-treatment, TNFα 48 hours): 90% | IL-6 production by TNF-α stimulated normal human stromal cells (result in words) (IL-6 production; normal human stromal cells, FIG. 5B): blocked IL-6 production | TNF-α induced PKCζ phosphorylation in stromal cells (phospho-PKCζ): blocked | CFU-Blast colony formation [2]: do not inhibit
